Measurements published in patent publication US6583180B2, “Glucocorticoid receptor modulators” (Abbott Laboratories, priority 2001, dated 2003).

Each compound was assayed against T1, Human glucocorticoid receptors (Homo sapiens, UniProt P04150) (assay: Radioligand filter binding assay, displacement of 3[H]-dexamethasone from hGR). Details: read-out: GR Binding (% Inhibition at 1.7 μM).
T1 construct: made in house; host or cells: Sf9 insect cells, recombinant baculovirus (BAC-TO-BAC)
T1 sequence (P04150 1-777): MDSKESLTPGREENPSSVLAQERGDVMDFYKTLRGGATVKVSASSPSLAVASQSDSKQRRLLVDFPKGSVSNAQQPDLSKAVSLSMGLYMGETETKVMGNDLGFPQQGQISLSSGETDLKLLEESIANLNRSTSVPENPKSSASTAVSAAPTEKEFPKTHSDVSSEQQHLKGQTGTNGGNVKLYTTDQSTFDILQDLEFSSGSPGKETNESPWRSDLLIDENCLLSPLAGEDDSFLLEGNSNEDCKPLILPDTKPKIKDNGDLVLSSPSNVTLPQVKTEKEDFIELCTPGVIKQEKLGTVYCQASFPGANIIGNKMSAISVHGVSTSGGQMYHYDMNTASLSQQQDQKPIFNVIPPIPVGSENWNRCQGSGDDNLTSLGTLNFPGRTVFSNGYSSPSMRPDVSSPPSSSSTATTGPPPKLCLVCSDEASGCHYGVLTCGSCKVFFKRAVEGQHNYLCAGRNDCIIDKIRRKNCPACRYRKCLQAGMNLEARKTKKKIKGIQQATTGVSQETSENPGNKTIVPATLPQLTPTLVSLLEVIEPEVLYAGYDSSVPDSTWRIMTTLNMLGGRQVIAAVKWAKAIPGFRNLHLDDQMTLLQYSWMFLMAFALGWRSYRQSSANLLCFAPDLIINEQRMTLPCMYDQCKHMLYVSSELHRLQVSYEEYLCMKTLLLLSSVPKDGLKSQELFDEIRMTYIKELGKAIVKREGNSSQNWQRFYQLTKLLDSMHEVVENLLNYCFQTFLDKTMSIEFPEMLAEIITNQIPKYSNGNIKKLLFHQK
Description: Dexamethasone hereafter referred to as dex was purchased from SIGMA. […] Human glucocorticoid receptors were extracted from Sf9 cells infected with a recombinant baculovirus transfer vector containing the cloned hGR genes. Recombinant baculovirus was generated utilizing the BAC-TO-BAC expression system (Life Technologies) in accordance to instruction from the supplier. The hGR coding sequences were cloned into a baculovirus transfer vector by standard techniques. The recombinant baculoviruses expressing hGR were amplified and used to infect Sf9 cells. Infected cells were harvested 48 hrs post infection. […] The concentration of hGR in the extract was measured as specific ^3[H]-dex binding with the G25-assay as described in J. Steroid Biochem. Molec. […] The extract was aliquoted and stored at −70° C.
The filter binding assay: Dilution series of the test compounds and dex as reference were made from 10 mM (1 mM dex) stock solutions in DMSO. 10 μl of the dilutions was added in duplicates to the wells. The cell extracts were diluted 10 fold in EPMo+MTG buffer (1 mM EDTA, HPO4 20 mM (pH8), 6 mM MTG). […] 110 μl of the diluted ^3[H]-dex were added to the wells. The final concentration of hGR in the experiment was estimated to 1 nM. All preparations were made in […] on ice and with +4° C. temperated buffers. The plates were incubated over night at +4° C. (15-20 hours).
The incubation was stopped by filtration through GF/B filter on the Tomtec Cellharvester. The filtration on the Tomtec Cellharvester was programmed as follows: 1) Preparation before filtration with EP buffer (1 mM EDTA 20 mM HPO4 (pH8)) 2×[Wash/Asp 0.6 sec., Asp 0.5 sec.]; 2) Prewet of GF/B filter with EP+PEI buffer (EP buffer, 0.3% Polyethylenimine) [Asp 0.8 sec.]; 3) Filtration/harvesting of the 96-well incubation plate 3×[Wash/Asp 0.6 sec., Asp 0.5 sec.]. The GF/B filter was dried for at least 1 hour at 65° C. A MeltiLex scintillation wax was melted onto the filter with the Microsealer. The filter was placed in a samplebag, which was thereafter trimmed with scissors to fit the filter cassette. The cassette were placed in the Microbeta and measured for 1 min/position, returning ccpm (corrected counts per minute).
b=((bmax−bmin)/(1+(I/IC50)^S))+bminI
The Microbeta-instrument generates the mean cpm (counts per minute) value/minute and corrects for individual variations between the detectors thus generating corrected cpm values.

SMILES | inhibition at 1.7 µM [%]
Cc1c(NS(=O)(=O)N(C)C)cccc1N(Cc1ccccc1)Cc1ccccc1 [Example 5, N′-[3-(dibenzylamino)-2-methylphenyl]-N,N-dimethylsulfamide] | 75.2
Cc1c(NS(C)(=O)=O)cccc1N(Cc1ccccc1)Cc1ccc([N+](=O)[O-])cc1 [Example 8, N-{3-[benzyl(4-nitrobenzyl)amino]-2-methylphenyl}methanesulfonamide] | 75.9
Cc1c(NS(C)(=O)=O)cccc1N(Cc1ccccc1)Cc1ccc2c(c1)OCO2 [Example 15, N-{3-[(1,3-benzodioxol-5-ylmethyl)(benzyl)amino]-2-methylphenyl}methanesulfonamide] | 77.9
Cc1c(NS(C)(=O)=O)cccc1N(Cc1ccccc1)Cc1ccc2c(c1)OCCO2 [Example 16, N-{3-[benzyl(2,3-dihydro-1,4-benzodioxin-6-ylmethyl)amino]-2-methylphenyl}methanesulfonamide] | 75.6
COc1ccc(CN(Cc2ccccc2C#N)c2cccc(NS(C)(=O)=O)c2C)c(F)c1 [Example 21, N-{3-[(2-cyanobenzyl)(2-fluoro-4-methoxybenzyl)amino]-2-methylphenyl}methanesulfonamide] | 71.5
Cc1c(NS(C)(=O)=O)cccc1N(Cc1ccccc1Br)C(C#N)c1ccccc1 (stereo not shown) [Example 37, N-(3-{(2-bromobenzyl)[cyano(phenyl)methyl]amino}-2-methylphenyl)methanesulfonamide] | 72.5
C=Cc1c(NS(C)(=O)=O)cccc1N(Cc1ccccc1)Cc1ccccc1 [Example 44, N-[3-(dibenzylamino)-2-vinylphenyl]methanesulfonamide] | 89.2
CCOC(=O)CCNC(=O)c1ccc(Oc2ccc(CN(Cc3ccc(F)cc3F)c3cccc(NS(C)(=O)=O)c3C)cc2)cc1 [Example 68, ethyl N-(4-{4-[((2,4-difluorobenzyl){2-methyl-3-[(methylsulfonyl)amino]phenyl}amino)methyl]phenoxy}benzoyl)-beta-alaninate] | 90.4
CC(=O)c1cccc(Oc2ccc(CN(Cc3ccc(F)cc3F)c3cccc(NS(C)(=O)=O)c3C)cc2)c1 [Example 140, N-{3-[[4-(3-acetylphenoxy)benzyl](2,4-difluorobenzyl)amino]-2-methylphenyl}methanesulfonamide] | 88.1
CCOc1ccc(CN(Cc2ccc(F)cc2F)c2cccc(NS(C)(=O)=O)c2C)cc1 [Example 142, N-{3-[(2,4-difluorobenzyl)(4-ethoxybenzyl)amino]-2-methylphenyl}methanesulfonamide] | 90.4
Cc1c(NS(C)(=O)=O)cccc1N(Cc1ccccc1)Cc1ccc(-c2ccccc2C#N)cc1 [Example 146, N-(3-{benzyl[(2′-cyano-1,1′-biphenyl-4-yl)methyl]amino}-2-methylphenyl)methanesulfonamide] | 28.1
Cc1c(NS(C)(=O)=O)cccc1N(Cc1ccc(OCc2ccc3c(c2)OCO3)cc1)Cc1ccc(F)cc1F [Example 156, N-{3-[[4-(1,3-benzodioxol-5-ylmethoxy)benzyl](2,4-difluorobenzyl)amino]-2-methylphenyl}methanesulfonamide] | 94.9
Cc1c(NS(C)(=O)=O)cccc1N(Cc1ccc(OCc2cc3c(cc2Cl)OCO3)cc1)Cc1ccc(F)cc1F [Example 157, N-{3-[{4-[(6-chloro-1,3-benzodioxol-5-yl)methoxy]benzyl}(2,4-difluorobenzyl)amino]-2-methylphenyl}methanesulfonamide] | 91.8
Cc1c(NS(C)(=O)=O)cccc1N(Cc1ccc(Oc2cccc(OC[C@@H]3C[C@@H](O)CC(=O)O3)c2)cc1)Cc1ccc(F)cc1F [Example 231, N-(3-((2,4-difluorobenzyl)(4-(3-(((2S,4R)-6-oxo-4-hydroxytetrahydro-2H-pyran-2-yl)methoxy)phenoxy)benzyl)amino)-2-methylphenyl)methanesulfonamide] | 96
CCc1ccc(Oc2ccc(CN(Cc3ccc(F)cc3F)c3cccc(NS(C)(=O)=O)c3C)cc2)cc1OCC(=O)O [Example 236, (5-{4-[((2,4-difluorobenzyl){2-methyl-3-[(methylsulfonyl)amino]phenyl}amino)methyl]phenoxy}-2-ethylphenoxy)acetic acid] | 96.1

Continued, values first:

inhibition at 1.7 µM [%] | SMILES
97.2 | Cc1c(NS(C)(=O)=O)cccc1N(Cc1ccc(Oc2ccc(CCCC(=O)O)cc2)cc1)Cc1ccc(F)cc1F [Example 74, 4-(4-{4-[((2,4-difluorobenzyl){2-methyl-3-[(methylsulfonyl)amino]phenyl}amino)methyl]phenoxy}phenyl)butanoic acid]
96.9 | COC(=O)NCCOc1cccc(Oc2ccc(CN(Cc3ccccc3)c3cccc(NS(C)(=O)=O)c3C)cc2)c1 [Example 82, methyl 2-(3-{4-[(benzyl{2-methyl-3-[(methylsulfonyl)amino]phenyl}amino)methyl]phenoxy}phenoxy)ethylcarbamate]
87.4 | Cc1c(NS(C)(=O)=O)cccc1N(Cc1ccccc1)Cc1ccc(Oc2ccc(CCC(=O)OCc3ccccc3)cc2)cc1 [Example 98, benzyl 3-(4-{4-[(benzyl{2-methyl-3-[(methylsulfonyl)amino]phenyl}amino)methyl]phenoxy}phenyl)propanoate]
96.9 | Cc1c(NS(C)(=O)=O)cccc1N(Cc1ccccc1)Cc1ccc(Oc2cccc(OC3CCOC3=O)c2)cc1 (stereo not shown) [Example 112, N-{3-[benzyl(4-{3-[(2-oxotetrahydrofuran-3-yl)oxy]phenoxy}benzyl)amino]-2-methylphenyl}methanesulfonamide]
96.4 | Cc1c(NS(C)(=O)=O)cccc1N(Cc1ccccc1)Cc1ccc(Oc2cccc(OC(CCO)C(=O)O)c2)cc1 (stereo not shown) [Example 113, 2-(3-{4-[(benzyl{2-methyl-3-[(methylsulfonyl)amino]phenyl}amino)methyl]phenoxy}phenoxy)-4-hydroxybutanoic acid]
98.1 | Cc1c(NS(C)(=O)=O)cccc1N(Cc1ccccc1)Cc1ccc(Oc2cccc(OCCCCC(=O)O)c2)cc1 [Example 117, 5-(3-{4-[(benzyl{2-methyl-3-[(methylsulfonyl)amino]phenyl}amino)methyl]phenoxyl}phenoxy)pentanoic acid]
93.1 | Cc1c(NS(C)(=O)=O)cccc1N(Cc1ccc(OCCc2ccccc2)cc1)Cc1ccc(F)cc1F [Example 158, N-(3-{(2,4-difluorobenzyl)[4-(2-phenylethoxy)benzyl]amino}-2-methylphenyl)methanesulfonamide]
94.9 | CCOC(=O)CCCOc1ccc(Oc2ccc(CN(Cc3ccccc3)c3cccc(NS(C)(=O)=O)c3C)cc2)cc1 [Example 232, ethyl 4-(4-{4-[(benzyl{2-methyl-3-[(methylsulfonyl)amino]phenyl}amino)methyl]phenoxy}phenoxy)butanoate]
96.8 | Cc1c(NS(C)(=O)=O)cccc1N(Cc1ccccc1)Cc1ccc(Oc2ccc(OCCCC(=O)O)cc2)cc1 [Example 233, 4-(4-{4-[(benzyl{2-methyl-3-[(methylsulfonyl)amino]phenyl}amino)methyl]phenoxy}phenoxy)butanoic acid]
96.1 | Cc1c(NS(C)(=O)=O)cccc1N(Cc1ccccc1)Cc1ccc(Oc2ccc(OCCCCC(=O)O)cc2)cc1 [Example 234, 5-(4-{4-[(benzyl{2-methyl-3-[(methylsulfonyl)amino]phenyl}amino)methyl]phenoxy}phenoxy)pentanoic acid]
